Results taken from paper PMC3445516 (PLoS ONE, 2012).
Read-outs that look alike come from different tables or passages of the source.

Legend:
Experiment in all cases: Ambit kinase profiling, competition binding
MST3 = molecular target: T1, MST3 (Homo sapiens, UniProt Q9Y6E0); conditions: for % Competition: 10 µM
T1 construct: purchased Ambit Biosciences (KINOMEscan)
Description: (§1) Also included in the kinase profile are four isoforms of PKC (δ, ε, η, θ) and eight isoforms of CAMKs (CAMKIα, δ, γ; CAMKIIα, β, δ, γ; CAMK4).
(§2) The global kinase profiling experiment was performed by Ambit Biosciences.

ADCK4 = molecular target: T2, ADCK4 (Homo sapiens, UniProt Q96D53)
T2 construct: purchased Ambit Biosciences (KINOMEscan)
T2 sequence (Q96D53 1-544): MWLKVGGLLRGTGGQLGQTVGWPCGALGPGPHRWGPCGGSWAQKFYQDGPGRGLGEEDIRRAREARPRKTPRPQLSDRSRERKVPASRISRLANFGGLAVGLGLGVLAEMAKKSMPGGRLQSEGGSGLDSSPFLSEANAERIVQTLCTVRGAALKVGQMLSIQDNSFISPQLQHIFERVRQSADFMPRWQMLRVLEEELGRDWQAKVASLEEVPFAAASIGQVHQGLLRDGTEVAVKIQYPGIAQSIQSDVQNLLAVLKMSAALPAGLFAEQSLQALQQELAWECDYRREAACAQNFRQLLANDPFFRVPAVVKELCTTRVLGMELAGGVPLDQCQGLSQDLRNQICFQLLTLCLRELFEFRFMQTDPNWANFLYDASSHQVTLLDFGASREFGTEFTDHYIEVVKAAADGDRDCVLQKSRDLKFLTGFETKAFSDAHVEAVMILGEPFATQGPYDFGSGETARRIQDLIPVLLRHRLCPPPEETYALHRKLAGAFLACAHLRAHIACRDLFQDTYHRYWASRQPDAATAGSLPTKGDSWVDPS
Description: as §1, §2

PRKD2 = molecular target: T3, PRKD2 (Homo sapiens, UniProt Q9BZL6)
T3 construct: purchased Ambit Biosciences (KINOMEscan)
T3 sequence (Q9BZL6 1-878): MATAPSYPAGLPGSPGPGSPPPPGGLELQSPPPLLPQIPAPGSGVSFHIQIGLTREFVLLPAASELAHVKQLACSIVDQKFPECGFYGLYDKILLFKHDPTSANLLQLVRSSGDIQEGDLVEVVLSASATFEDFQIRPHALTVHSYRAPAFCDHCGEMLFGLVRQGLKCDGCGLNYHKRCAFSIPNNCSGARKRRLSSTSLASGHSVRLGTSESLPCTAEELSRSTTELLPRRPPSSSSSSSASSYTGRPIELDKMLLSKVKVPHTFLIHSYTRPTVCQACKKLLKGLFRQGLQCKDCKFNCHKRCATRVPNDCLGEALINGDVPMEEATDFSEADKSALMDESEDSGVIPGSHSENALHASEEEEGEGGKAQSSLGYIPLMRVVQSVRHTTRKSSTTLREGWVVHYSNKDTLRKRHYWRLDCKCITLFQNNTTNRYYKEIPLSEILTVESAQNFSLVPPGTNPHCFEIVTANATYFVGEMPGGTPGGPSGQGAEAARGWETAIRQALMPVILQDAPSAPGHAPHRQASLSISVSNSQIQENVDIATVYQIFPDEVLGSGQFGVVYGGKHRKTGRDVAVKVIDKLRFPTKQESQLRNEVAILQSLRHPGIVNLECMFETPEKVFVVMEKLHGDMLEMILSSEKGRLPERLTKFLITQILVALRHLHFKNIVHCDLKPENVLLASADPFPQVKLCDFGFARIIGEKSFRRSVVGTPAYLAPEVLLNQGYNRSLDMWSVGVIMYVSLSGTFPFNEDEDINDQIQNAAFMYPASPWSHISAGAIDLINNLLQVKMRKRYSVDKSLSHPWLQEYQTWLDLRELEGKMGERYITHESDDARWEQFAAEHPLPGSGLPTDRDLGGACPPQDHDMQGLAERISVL
Description: as §1, §2

CAMKIIβ = molecular target: T4, CAMKIIβ (Homo sapiens, UniProt Q13554); conditions: for competition: CAMKIIβ, 10 µM
T4 construct: purchased Ambit Biosciences (KINOMEscan)
T4 sequence (Q13554 whole entry): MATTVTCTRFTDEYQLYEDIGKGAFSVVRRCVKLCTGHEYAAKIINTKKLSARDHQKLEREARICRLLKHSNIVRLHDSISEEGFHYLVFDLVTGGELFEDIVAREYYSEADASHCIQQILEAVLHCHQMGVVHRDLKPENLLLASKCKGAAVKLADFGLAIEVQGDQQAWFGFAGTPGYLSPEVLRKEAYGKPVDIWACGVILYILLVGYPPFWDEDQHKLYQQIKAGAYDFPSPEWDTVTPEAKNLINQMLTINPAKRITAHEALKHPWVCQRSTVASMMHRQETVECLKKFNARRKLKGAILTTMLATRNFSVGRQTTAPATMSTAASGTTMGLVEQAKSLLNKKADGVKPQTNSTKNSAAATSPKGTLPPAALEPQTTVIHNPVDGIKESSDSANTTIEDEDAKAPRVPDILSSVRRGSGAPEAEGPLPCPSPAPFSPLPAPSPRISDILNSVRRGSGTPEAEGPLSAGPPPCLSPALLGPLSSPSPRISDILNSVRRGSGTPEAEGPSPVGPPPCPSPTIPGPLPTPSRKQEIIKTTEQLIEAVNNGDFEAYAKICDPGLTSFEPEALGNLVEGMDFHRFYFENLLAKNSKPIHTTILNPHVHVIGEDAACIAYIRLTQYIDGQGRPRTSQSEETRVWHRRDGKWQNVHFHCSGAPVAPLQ
Description: as §1, §2

CDK2 = molecular target: T5, CDK2 (Homo sapiens, UniProt P24941); conditions: for % Competition: 10 µM
T5 construct: purchased Ambit Biosciences (KINOMEscan)
Description: as §1, §2

FLT3(D835Y) = molecular target: T6, FLT3(D835Y) (Homo sapiens, UniProt P36888, D835Y)
T6 construct: purchased Ambit Biosciences (KINOMEscan)
T6 sequence (P36888 27-993 D835Y): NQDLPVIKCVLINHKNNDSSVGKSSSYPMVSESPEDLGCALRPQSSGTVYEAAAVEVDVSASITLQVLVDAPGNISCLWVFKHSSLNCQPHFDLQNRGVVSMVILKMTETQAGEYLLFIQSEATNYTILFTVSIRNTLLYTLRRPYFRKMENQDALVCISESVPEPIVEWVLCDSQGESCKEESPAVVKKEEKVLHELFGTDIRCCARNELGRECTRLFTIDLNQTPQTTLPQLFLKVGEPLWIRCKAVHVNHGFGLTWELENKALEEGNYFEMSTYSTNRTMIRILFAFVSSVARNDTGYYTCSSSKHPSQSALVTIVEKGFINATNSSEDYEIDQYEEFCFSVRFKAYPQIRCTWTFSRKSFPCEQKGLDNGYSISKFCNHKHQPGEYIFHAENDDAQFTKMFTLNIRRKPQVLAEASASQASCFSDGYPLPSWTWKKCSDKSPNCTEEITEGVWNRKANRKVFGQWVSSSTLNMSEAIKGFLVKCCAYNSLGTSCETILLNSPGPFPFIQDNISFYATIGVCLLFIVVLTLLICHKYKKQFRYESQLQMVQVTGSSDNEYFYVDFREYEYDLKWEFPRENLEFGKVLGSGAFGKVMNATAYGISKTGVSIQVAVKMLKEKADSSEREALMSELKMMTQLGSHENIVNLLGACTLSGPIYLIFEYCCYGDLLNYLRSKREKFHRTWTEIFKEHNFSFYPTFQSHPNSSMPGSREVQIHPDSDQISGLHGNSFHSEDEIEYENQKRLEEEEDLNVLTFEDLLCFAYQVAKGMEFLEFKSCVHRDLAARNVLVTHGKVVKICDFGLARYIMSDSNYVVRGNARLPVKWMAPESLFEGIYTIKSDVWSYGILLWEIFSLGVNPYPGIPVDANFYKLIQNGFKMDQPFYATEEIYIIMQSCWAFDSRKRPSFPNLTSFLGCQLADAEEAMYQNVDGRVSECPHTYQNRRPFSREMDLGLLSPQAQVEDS
Description: as §1, §2

T1 sequence (Q9Y6E0 whole entry): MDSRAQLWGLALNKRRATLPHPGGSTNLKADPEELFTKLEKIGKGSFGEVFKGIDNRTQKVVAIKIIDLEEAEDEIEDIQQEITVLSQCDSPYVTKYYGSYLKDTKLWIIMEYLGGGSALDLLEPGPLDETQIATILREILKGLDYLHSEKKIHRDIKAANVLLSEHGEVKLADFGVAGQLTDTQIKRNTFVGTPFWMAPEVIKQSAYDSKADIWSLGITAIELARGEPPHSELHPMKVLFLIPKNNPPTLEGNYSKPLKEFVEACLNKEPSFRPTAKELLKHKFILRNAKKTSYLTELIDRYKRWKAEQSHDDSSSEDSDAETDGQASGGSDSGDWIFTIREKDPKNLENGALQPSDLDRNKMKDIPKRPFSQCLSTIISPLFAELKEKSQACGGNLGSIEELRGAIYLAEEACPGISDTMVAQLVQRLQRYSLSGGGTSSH

Percent Competition (MST3; compound concentration 10 uM)	inhibition at 10 µM (ADCK4; ADCK4, compound concentration 10 uM, read-out: Percent Competition)	inhibition at 10 µM (PRKD2; PRKD2, compound concentration 10 uM, read-out: Percent Competition)	inhibition at 10 µM (CAMKIIβ; CAMK2B, compound concentration 10 uM, read-out: Percent Competition)	Percent Competition (CDK2; compound concentration 10 uM)	inhibition at 10 µM (FLT3(D835Y); FLT3(D835Y), compound concentration 10 uM, read-out: Percent Competition)	inhibition at 10 µM (ADCK4; ADCK4, 10 µM, read-out: % Competition)	inhibition at 10 µM (PRKD2; PRKD2 (PKD2), 10 µM, read-out: % Competition)	inhibition at 10 µM (FLT3(D835Y); FLT3(D835Y), 10 µM, read-out: % Competition)	SMILES	% Competition (MST3)	competition (CAMKIIβ)	% Competition (CDK2)	inhibition at 10 µM (ADCK4; read-out: % Competition)	inhibition at 10 µM (PRKD2; read-out: % Competition)	inhibition at 10 µM (FLT3(D835Y); read-out: % Competition)
68%	94%	98%	< 50%	93%	76%	–	–	–	Fc1ccc(-c2c(-c3ccncc3)[nH]c3nccnc23)cc1 [RO1155697-000-005]	–	–	–	–	–	–
–	–	–	–	–	–	94%	98%	76%	Fc1ccc(-c2c(-c3ccncc3)[nH]c3nccnc23)cc1 [Compound 122]	68%	< 50%	93%	–	–	–
–	–	–	–	–	–	–	–	–	CC(O)CNc1cc(-c2[nH]c3cccnc3c2-c2ccc(F)cc2)ccn1 (stereo not drawn) [Compound 140]	<50%	< 50%	<50%	98%	99%	< 50%
